Experimental data taken from US20010000513A1, “Biphenyl butyric acids and their derivatives as inhibitors of matrix metalloproteinases” (priority 1996, published 2001).
Values belong to the molecule of their own block, whether it stands above or below them.

Experiments:
[1] = tested on: mice sensitized with a fragment of mouse myelin basic protein to induce EAE; assay: Experimental Autoimmune Encephalomyelitis (EAE); type: in vivo
Protocol: Compounds were administered by oral route to mice sensitized with a fragment of mouse myelin basic protein to induce EAE. Mice were dosed daily for 21 days beginning 4 hours before sensitization on day one. EAE responses of compound treated groups were compared to those of a control group of mice sensitized identically and a sham-sensitized group treated with vehicle. The values reported in Table 2 include responses during compound treatment only.
Sensitization Female mice [PL/J(FI)×SJL/J, Jackson Labs], 11 weeks old, were sensitized s.c. (0.05 cc×2) at the base of the tail with an emulsion containing equal parts of mouse myelin basic protein (MBP) fragment (amino acids 1-9 of the N-terminus of MBP) in saline and Difco Complete Freund's Adjuvant (CFA) fortified with heat killed desiccated Mycobacteria tuberculosis (MT). Each mouse received 300 μg of MBP fragment (230 μg free base) and 200 μg MT followed by retrobulbar (IV) injection of 200 ng of B. pertussis toxin in 0.2 cc of saline. Two days later mice receive a second injection of B. pertussis toxin.
Neurological Assessment Animals were weighed and evaluated for symptoms of EAE before and frequently after sensitization. EAE score: (0.5=slight limp tail, 1=limp tail or slow to right, 1.5=slight limp tail and slow to right, 2=paresis/mild paralysis or incontinence, 2.5=mild paralysis and slow to right or complete paralysis (one hind limb), 3=hind limb paralysis (both), 3.5=hind limb paralysis (both) and limp torso; 4=additional fore limb paralysis, 4.5=head movement only, 5=moribund, death after previous EAE symptoms). Evaluators were blinded as to compound treatments and previous behavioral scores.
Disease symptoms are compared among groups for EAE severity, incidence, time to onset, cumulative score, and deaths. Peak EAE score: the mean of the highest score for each mouse in a group, independent of duration of symptoms; EAE incidence: the mean number of mice showing symptoms of EAE, defined as having EAE scores on any 3 consecutive days that total “≧3.0”. EAE deaths: an animal that died must have presented previous evidence of an EAE score greater than 0.5; EAE onset: the first of a 3-day series scoring a total of ≧3.0.
A Cumulative EAE score is calculated for each animal. A mean of all animals' cumulative scores is then determined for each day.
Experimental groups were assumed to be similar and were compared for statistical significance by a 2-tailed T-Test (p≦0.05).
Compound was homogenized manually with an aliquot of warm vehicle (1.0% hydroxypropyl-methylcellulose [Sigma] in water) in glass mortar tubes and homogenizing pestle. The smooth compound paste was gradually suspended in vehicle. Mice were dosed with compound and/or vehicle, 10 mL/kg in groups of ten. A sham-sensitized group was similarly dosed with vehicle.

[2] = tested on: Female Lewis rats sensitized to streptococcal cell walls; assay: Streptococcal Cell Wall Model (SCW), paw swelling; type: in vivo; conditions: rat SCW flare
Protocol: Female Lewis rats (125-150 g) are sensitized to the 100 P preparation of streptococcal cell walls (obtained from Lee Labs, Greyson, Ga.) with an intra-articular injection of 10 μL SCW containing 6 μg of the cell wall particles into one of the ankle joints. The contralateral ankle joint is injected with an equal volume of saline. Twenty-one days later, animals are placed in treatment groups (7 per group) according to their immediate response to the intra-articular injection of SCW (to obtain groups with equivalent responses). A control group is injected with saline. Each animal is then lightly anesthetized with ether, the paw volumes of each hind paw are determined by mercury plethysmography, and the animals are injected IV via the tail vein with a 0.25-mL dose of SCW containing 100 μg of the 100 P cell wall particles. Each group of rats receives an oral dose of compound for 7 days in an appropriate dosing vehicle beginning on Day 21. Paw swelling is determined by subtracting the paw volume of the saline injected ankle from the SCW sensitized ankle. Percent inhibition is calculated by comparing the compound treatment group with the control group. A one-way analysis of variance with a Dunnett's test for multiple comparisons is used for determination of statistical power. Rats were sensitized 21 days prior to initiating the flare response by systemic SCW. […] Paw volume was measured 24 hours after the first administration. Numbers represent the mean percent inhibition of swelling from 10 animals/treatment group.

[3] = tested on: male Wistar rats, polyarthritis induced by Mycobacterium butyricum; assay: Adjuvant Arthritis Model, hind paw edema; type: in vivo; conditions: P <0.001
Protocol: Polyarthritis was induced by a modified method of the procedure developed by Chang, et al., Arthritis and Rheum., 1980;23:62. Briefly, male Wistar rats (100-115 g each) received subcutaneous injection of 0.1 mL of 10 mg/mL (or 1 mg) Mycobacterium butyricum suspended in paraffin oil in the distal third of the tail, using a glass tuberculin syringe and 25 gauge needle. M. Butyricum suspension was achieved by sonication in paraffin oil for 10 minutes with the vessel immersed in ice bath. Rates were randomized after injection and placed in cages. […] The rest were randomized and separated into dosing (test) groups (N=10 per group) and control (vehicle) group (N=20). The hind paws volume and the weights of each animal in each group was recorded and served as the initial values for the study. Hind paw swelling was assessed using mercury plethysmography beginning on Day 12 and every other day till Day 22 (final assessment).
The dose volume was 10 mL/kg PO. Animals were dosed twice daily for 10 days starting on Day 12. Also, hind paw volumes were measured on Days 12, 14, 16, 18, 20, and 22 as stated above. The results are reported as % inhibition of delta edema on Day 22. Delta edema is the difference in footpad edema between the day in which animals are assessed and that on Day 12 of the study. The percent inhibition is based on a comparison of the treatment groups to the vehicle group.

[4] = tested on: Male Swiss-Webster mice, 0.6% acetic acid i.p.; assay: Acetic Acid-Induced Hyperalgesia Model, writhing; type: in vivo; conditions: for % Inhibition (writhing): 1 hour before acetic acid
Protocol: Treatment groups (n=8) were divided so that 2 animals were placed into each of four 4″×4″×4″ adjacent plexiglass containers. Seven minutes after acid, writhing motions (abdominal contractions, concave arching of the back, and/or hindleg stretching) were tallied for 5 minutes. The ID40 value was calculated by linear regression analysis.

SMILES: O=C(O)CCC(=NO)c1ccc(-c2ccc(Cl)cc2)cc1 [Example 1, 4-(4′-Chloro-biphenyl−4-yl)-4-hydroxyimino-butyric acid]
effect on EAE cumulative score ([1]; 50 mg/kg oral): reduced the EAE cumulative score | EAE Onset ([1]; 50 mg/kg oral daily for 21 days, control 12.2 ± 0.9, p ≦0.05 vs control): 16.2 ± 1.0 days | EAE Cumulative Score ([1]; 50 mg/kg oral daily for 21 days, control 31.6 ± 1.7, p ≦0.05 vs control): 17.9 ± 2.8 | EAE Deaths ([1]; 50 mg/kg oral daily for 21 days, during compound treatment, control 2/10): 0/10 | EAE Incidence ([1]; 50 mg/kg oral daily for 21 days, mice with EAE/group, control 10/10): 9/10 | Peak EAE Score ([1]; 50 mg/kg oral daily for 21 days, responses during compound treatment only, control 4.2 ± 0.1): 3.8 ± 0.3 | EAE-induced deaths to Day 43 ([1]; 50 mg/kg oral, to Day 43): no EAE-induced deaths | delay of the onset of EAE ([1]; dosed at 50 mg/kg oral): 4 days | % Inhibition at Day 4 (paw swelling) ([2]; 3 mg/kg bid oral): 71% | % Inhibition at Day 4 (paw swelling) ([2]; 10 mg/kg bid oral): 86% | % Inhibition at Day 4 (paw swelling) ([2]; 30 mg/kg bid oral): 86% | % Inhibition of delta edema on Day 22 ([3]; 3.0 mg/kg bid PO for 10 days from Day 12): 68.1% | % Inhibition of delta edema on Day 22 ([3]; 10.0 mg/kg bid PO for 10 days from Day 12): 84.4% | % Inhibition of delta edema on Day 22 ([3]; 30.0 mg/kg bid PO for 10 days from Day 12): 99.9% | % Inhibition (writhing) ([4]; 0.03 mg/kg oral): 7% | % Inhibition (writhing) ([4]; 0.1 mg/kg oral): 26% | % Inhibition (writhing) ([4]; 0.3 mg/kg oral): 37% | % Inhibition (writhing) ([4]; 1 mg/kg oral): 41% | % Inhibition (writhing) ([4]; 10 mg/kg oral): 65% | ID40 ([4]; oral, calculated by linear regression analysis): 0.65 mg/kg

SMILES: O=C(O)CCC(=NO)c1ccc(-c2ccc(Br)cc2)cc1 [Example 2, 4-(4′-Bromo-biphenyl-4-yl)-4-hydroxyimino-butyric acid]
melting point: 175 to 176 °C

SMILES: CN(C)N=C(CCC(=O)O)c1ccc(-c2ccc(Cl)cc2)cc1 [Example 3, 4-(4′-Chloro-biphenyl-4-yl)-4-(dimethylhydrazono)-butyric acid]
melting point: 158 to 160 °C

SMILES: CON=C(CCC(=O)[O-])c1ccc(-c2ccc(Cl)cc2)cc1.[Na+] [Example 8, 4-(4′-Chloro-biphenyl-4-yl)-4-methoxyimino-butyric acid, sodium salt]
melting point: 234 to 238 °C

SMILES: CON=C(CCC(=O)O)c1ccc(-c2ccc(Cl)cc2)cc1 [Example 9, 4-(4′-Chloro-biphenyl-4-yl)-4-methoxyimino-butyric acid]
melting point: 183 to 186 °C

SMILES: O=C(O)CCC(=NO)c1ccc(-c2ccc(Cl)cc2F)cc1 [Example 10, 4-(4′-Chloro-2′-fluoro-biphenyl-4-yl)-4-hydroxyimino-butyric acid]
melting point: 147.5 to 149.5 °C

SMILES: O=C(O)CCC(=NO)c1ccc(-c2ccccc2F)cc1 [Example 11, 4-(2′-Fluoro-biphenyl-4-yl)-4-hydroxyimino-butyric acid]
melting point: 150 to 151.5 °C

SMILES: Cc1ccc(-c2ccc(C(CCC(=O)O)=NO)cc2)cc1 [Example 12, 4-Hydroxyimino-4-(4′-methyl-biphenyl-4-yl)-butyric acid]
melting point: 176.5 to 177.5 °C

SMILES: COc1ccc(-c2ccc(C(CCC(=O)O)=NO)cc2)cc1 [Example 13, 4-Hydroxyimino-4-(4′-methoxy-biphenyl-4-yl)-butyric acid]
melting point: 157 to 160 °C

SMILES: N#Cc1ccc(-c2ccc(C(CCC(=O)O)=NO)cc2)cc1 [Example 14, 4-(4′-Cyano-biphenyl-4-yl)-4-hydroxyimino-butyric acid]
melting point: 157 to 159 °C

Other lines, results leading:

melting point: 155 to 157 °C
SMILES: O=C(O)CCC(=NO)c1ccc(-c2cccc(F)c2)cc1 [Example 15, 4-(3′-Fluoro-biphenyl-4-yl)-4-hydroxyimino-butyric acid]

melting point: 134 to 136 °C
SMILES: O=C(O)CCC(=NO)c1ccc(-c2ccc(C(F)(F)F)cc2)cc1 [Example 16, 4-Hydroxyimino-4-(4′-trifluoromethyl-biphenyl-4-yl)-butyric acid]

melting point: 162 to 164 °C
SMILES: CSc1ccc(-c2ccc(C(CCC(=O)O)=NO)cc2)cc1 [Example 17, 4-Hydroxyimino-4-(4′-methylsulfanyl-biphenyl-4-yl)-butyric acid]

melting point: 190 to 192 °C
SMILES: O=C1CCC(c2ccc(-c3ccc(Cl)cc3)cc2)=NO1 [Example 18, 3-(4′-Chloro-biphenyl-4-yl)-4,5-dihydro-6-oxo-6H-1,2-oxazine]
